Source: PMC8982737, “Discovery of S-217622, a Noncovalent Oral SARS-CoV-2 3CL Protease Inhibitor Clinical Candidate for Treating COVID-19” (Journal of Medicinal Chemistry, 2022)
Where “and” joins values, the source holds several entries; their conditions need not be identical. Equal entries are not always repeated. Where two headings read alike, the source gives them in different places.

Experiments:
SARS-CoV-2 3CL protease = SARS-CoV-2 3CL protease (Severe acute respiratory syndrome coronavirus 2, UniProt P0DTD1); experiment: biochemical; assay type: biochemical; conditions: for IC50: read-out: SARS-CoV-2 3CLpro IC50
cathepsin G = target: T1, cathepsin G (Homo sapiens, UniProt P08311)
T1 sequence (P08311 21-255): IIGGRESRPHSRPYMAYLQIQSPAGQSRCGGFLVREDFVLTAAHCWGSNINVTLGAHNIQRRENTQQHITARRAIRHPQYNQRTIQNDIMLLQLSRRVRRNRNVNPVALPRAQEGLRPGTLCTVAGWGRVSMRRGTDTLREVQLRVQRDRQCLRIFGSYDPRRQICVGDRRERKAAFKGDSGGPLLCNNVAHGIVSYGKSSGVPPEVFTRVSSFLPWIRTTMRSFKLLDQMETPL

SARS-CoV = experiment: microbe, parasite or virus in culture; assay type: cell-based; conditions: Severe acute respiratory syndrome coronavirus, VeroE6/TMPRSS2, read-out: EC50 against SARS-CoV
Monkey PK study = conditions: intravenous 0.1 mg/0.2 mL/kg, n = 2, nonfasted
[1] = mouse, in vivo
HIV-1 protease = HIV-1 protease (Human immunodeficiency virus type 1 group M subtype B, UniProt P04585); experiment: Enzymatic inhibitory activity against HIV-1 protease; assay type: biochemical
thrombin = thrombin (Homo sapiens, UniProt P00734); conditions: at 100 μM
HCoV-OC43 = experiment: microbe, parasite or virus in culture; assay type: cell-based
[2] = target: T2, human ether-a-go-go-related gene channel (Homo sapiens, UniProt Q12809); experiment: Human ether-a-go-go-related gene inhibition assay (patch clamp, CHO cells); assay type: cell-based; conditions: in vitro
T2 construct: expressed in transfected cells; host or cells: Chinese hamster ovary (CHO) cells
T2 sequence (Q12809 whole entry): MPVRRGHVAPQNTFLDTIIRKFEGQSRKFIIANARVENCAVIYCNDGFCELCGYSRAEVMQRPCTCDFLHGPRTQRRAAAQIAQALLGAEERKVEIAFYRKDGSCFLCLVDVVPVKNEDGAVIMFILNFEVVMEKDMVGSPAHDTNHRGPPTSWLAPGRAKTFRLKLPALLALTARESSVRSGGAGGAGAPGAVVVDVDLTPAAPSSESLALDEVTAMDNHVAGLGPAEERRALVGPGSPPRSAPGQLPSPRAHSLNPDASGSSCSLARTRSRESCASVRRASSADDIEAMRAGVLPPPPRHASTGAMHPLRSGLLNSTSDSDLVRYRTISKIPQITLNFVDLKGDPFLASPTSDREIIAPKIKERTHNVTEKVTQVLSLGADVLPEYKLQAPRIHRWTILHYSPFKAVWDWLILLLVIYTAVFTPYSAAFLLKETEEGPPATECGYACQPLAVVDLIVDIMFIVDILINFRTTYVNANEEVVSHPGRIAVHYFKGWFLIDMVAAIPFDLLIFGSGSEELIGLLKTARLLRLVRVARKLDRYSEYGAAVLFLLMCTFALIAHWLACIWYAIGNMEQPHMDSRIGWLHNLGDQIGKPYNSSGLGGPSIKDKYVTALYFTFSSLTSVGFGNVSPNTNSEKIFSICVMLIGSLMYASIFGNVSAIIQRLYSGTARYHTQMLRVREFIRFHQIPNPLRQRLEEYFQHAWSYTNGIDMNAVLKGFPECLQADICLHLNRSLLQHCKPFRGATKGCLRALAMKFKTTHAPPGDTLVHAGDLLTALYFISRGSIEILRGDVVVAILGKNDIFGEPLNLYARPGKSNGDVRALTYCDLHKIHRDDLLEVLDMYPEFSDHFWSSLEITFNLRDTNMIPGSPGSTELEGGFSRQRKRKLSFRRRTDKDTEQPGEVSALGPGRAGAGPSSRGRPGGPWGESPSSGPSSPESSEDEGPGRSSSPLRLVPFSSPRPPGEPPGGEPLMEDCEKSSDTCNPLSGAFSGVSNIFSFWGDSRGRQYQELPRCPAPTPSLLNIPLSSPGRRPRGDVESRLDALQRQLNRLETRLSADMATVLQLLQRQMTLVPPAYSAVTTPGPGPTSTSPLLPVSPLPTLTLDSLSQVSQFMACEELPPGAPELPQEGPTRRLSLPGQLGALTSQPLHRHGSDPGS

chymotrypsin = experiment: Human protease enzyme assay: chymotrypsin; assay type: biochemical
Dog PK study = conditions: intravenous 0.1 mg/0.2 mL/kg, n = 2, nonfasted
SARS-CoV-2 [3] = experiment: Cellular antiviral activity in the presence of mouse serum; assay type: cell-based; conditions: Severe acute respiratory syndrome coronavirus 2; extrapolated to 100% mouse serum; read-out: protein-adjusted-EC50 (PA-EC50)
in vivo [4] = conditions: female, cynomolgus monkey
VeroE6/TMPRSS2 cells = conditions: African green monkey
[5] = system: SARS-CoV-2 Gamma strain (hCoV-19/Japan/TY7-501/2021); assay type: in vivo, BALB/cAJcl mice
cathepsin D [6] = target: T3, cathepsin D (Homo sapiens, UniProt P07339); experiment: biochemical; conditions: read-out: Inhibitory activity
T3 sequence (P07339 65-412): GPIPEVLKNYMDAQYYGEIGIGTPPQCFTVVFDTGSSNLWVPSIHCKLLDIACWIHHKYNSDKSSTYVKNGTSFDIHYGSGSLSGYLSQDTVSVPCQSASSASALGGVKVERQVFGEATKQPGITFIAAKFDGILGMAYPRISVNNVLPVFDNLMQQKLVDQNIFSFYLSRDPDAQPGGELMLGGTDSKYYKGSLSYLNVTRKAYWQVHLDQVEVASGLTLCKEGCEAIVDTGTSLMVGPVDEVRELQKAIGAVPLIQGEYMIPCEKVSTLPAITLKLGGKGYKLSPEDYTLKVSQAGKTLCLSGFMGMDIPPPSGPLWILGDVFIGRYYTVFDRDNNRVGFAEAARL

[7] = male, Sprague-Dawley, rat, in vivo; for CL (total clearance): iv
cathepsin D [8] = target: T3, cathepsin D; conditions: at 100 μM
in vitro = conditions: African green monkey
cathepsin L = cathepsin L (Homo sapiens, UniProt P07711); experiment: Human protease enzyme assay: cathepsin L; assay type: biochemical
Sequence of cathepsin L (P07711 114-333): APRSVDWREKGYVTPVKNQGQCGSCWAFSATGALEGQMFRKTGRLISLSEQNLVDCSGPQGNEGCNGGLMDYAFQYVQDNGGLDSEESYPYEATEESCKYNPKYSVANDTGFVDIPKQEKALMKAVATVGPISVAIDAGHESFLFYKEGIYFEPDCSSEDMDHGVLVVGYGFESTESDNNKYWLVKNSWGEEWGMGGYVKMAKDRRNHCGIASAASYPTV

SARS-CoV-2 [9] = experiment: microbe, parasite or virus in culture; assay type: cell-based
in vivo [10] = conditions: male, beagle, dog
MERS-CoV = experiment: microbe, parasite or virus in culture; assay type: cell-based; conditions: Middle East respiratory syndrome-related coronavirus, VeroE6/TMPRSS2, read-out: EC50 against MERS-CoV
Rat PK study = conditions: oral 1 μmol/5 mL/kg, n = 2, nonfasted, listed as S-217622
HCoV-229E = experiment: microbe, parasite or virus in culture; assay type: cell-based; conditions: Human coronavirus 229E
caspase-2 = target: T4, caspase-2 (Homo sapiens, UniProt P42575)
T4 sequence (P42575 1-452): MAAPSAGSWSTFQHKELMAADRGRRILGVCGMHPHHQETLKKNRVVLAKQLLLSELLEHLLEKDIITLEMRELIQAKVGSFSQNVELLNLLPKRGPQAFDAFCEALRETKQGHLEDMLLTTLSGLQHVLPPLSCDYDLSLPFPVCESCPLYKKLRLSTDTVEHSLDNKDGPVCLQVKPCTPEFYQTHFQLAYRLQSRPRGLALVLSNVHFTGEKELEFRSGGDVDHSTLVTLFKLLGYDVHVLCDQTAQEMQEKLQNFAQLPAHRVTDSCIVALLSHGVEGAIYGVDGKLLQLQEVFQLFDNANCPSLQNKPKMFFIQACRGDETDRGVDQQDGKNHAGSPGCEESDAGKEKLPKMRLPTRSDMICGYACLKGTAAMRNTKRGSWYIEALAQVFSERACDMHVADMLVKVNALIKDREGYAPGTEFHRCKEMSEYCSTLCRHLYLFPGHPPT

[11] = male, rat, microsomes, 0.5 h, 0.5 μM, pH 7.4
[12] = both, human, microsomes, 0.5 h, 0.5 μM, pH 7.4
[13] = Severe acute respiratory syndrome coronavirus 2, VeroE6/TMPRSS2, strain hCoV-19/Japan/QHN001/2020 (Alpha, B.1.1.7), mean, read-out: EC50 on cytopathic effects
[14] = Severe acute respiratory syndrome coronavirus 2, VeroE6/TMPRSS2, strain hCoV-19/Japan/QHN002/2020 (Alpha, B.1.1.7), mean, read-out: EC50 on cytopathic effects
[15] = Severe acute respiratory syndrome coronavirus 2, VeroE6/TMPRSS2, strain hCoV-19/Japan/QK002/2020 (Alpha, B.1.1.7), mean, read-out: EC50 on cytopathic effects
[16] = Severe acute respiratory syndrome coronavirus 2, VeroE6/TMPRSS2, strain hCoV-19/Japan/TY7-501/2021 (Gamma, P.1), mean, read-out: EC50 on cytopathic effects
[17] = Severe acute respiratory syndrome coronavirus 2, VeroE6/TMPRSS2, strain hCoV-19/Japan/TY7-503/2021 (Gamma, P.1), mean, read-out: EC50 on cytopathic effects
[18] = Severe acute respiratory syndrome coronavirus 2, VeroE6/TMPRSS2, strain hCoV-19/Japan/TY8-612/2021 (Beta, B.1.351), mean, read-out: EC50 on cytopathic effects
[19] = Severe acute respiratory syndrome coronavirus 2, VeroE6/TMPRSS2, strain hCoV-19/Japan/TY11-927-P1/2021 (Delta, B.1.617.2), mean, read-out: EC50 on cytopathic effects
[20] = Severe acute respiratory syndrome coronavirus 2, VeroE6/TMPRSS2, strain hCoV-19/Japan/TY38-873/2021 (Omicron, B.1.1.529), mean, read-out: EC50 on cytopathic effects

CNC(=O)Cn1c(=O)[nH]/c(=N\c2cc3sc(C)nc3cc2C)n(Cc2ccccc2F)c1=O [Compound 17]
IC50 (SARS-CoV-2 3CL protease): 35 µM

CNC(=O)Cn1c(=O)nc(Nc2cc3sc(C)nc3cc2C)n(Cc2cc(F)c(F)c(F)c2)c1=O [Compound 15]
IC50 (SARS-CoV-2 3CL protease): 3.5 µM

Cn1cnc(Cn2c(=O)[nH]/c(=N\c3cc4cn(C)nc4cc3Cl)n(Cc3cc(F)c(F)cc3F)c2=O)n1 [Compound 3, (6E)-6-[(6-Chloro-2-methyl-2H-indazol-5-yl)imino]-3-[(1-methyl-1H-1,2,4-triazol-3-yl)methyl]-1-(2,4,5-trifluorobenzyl)-1,3,5-triazinane-2,4-dione]
IC50 (cathepsin G): > 100 µM | EC50 (SARS-CoV): 0.21 µM | half-life (Monkey PK study; female, cynomolgus monkey, in vivo, iv, 0.1 mg/kg, t1/2, monkey): 10 h | t1/2 (Monkey PK study; monkey, listed as S-217622): approximately 10 h | simulated plasma concentration over time ([1]; BALB/cAJcl, 16 mg/kg): above the protein-adjusted-EC50 | plasma concentration [1]: increased dose-dependently | IC50 (HIV-1 protease): > 100 µM | inhibition at 100 µM (HIV-1 protease; at 100 μM): < 50% | phototoxicity (BALB/3T3 cells): no safety concerns | Inhibitory activity (thrombin): no inhibitory activity | EC90 (HCoV-OC43; Betacoronavirus 1, OC43, MRC5, RT-qPCR, MRC-5 cells, mean, read-out: EC90 against HCoV-OC43): 0.074 µM | ether-a-go-go-related gene inhibition [2]: no safety concerns | IC50 (chymotrypsin): > 100 µM | t1/2 (Dog PK study; listed as S-217622): ~30 h | half-life (Dog PK study; male, beagle, in vivo, iv, 0.1 mg/kg, t1/2, dog): 29.5 h | EC50 (SARS-CoV-2 [3]): 3.93 µM and 2.09 µg/mL | clearance (in vivo [4]; iv, 0.1 mg/kg): 0.29 mL/min/kg | bioavailability (in vivo [4]; po): 106% | CC50 (VeroE6/TMPRSS2 cells): > 100 µM | lung viral titers ([5]; […], near lower limit of quantification): ~1.80 | effect on intrapulmonary (lung) viral titers ([5]; mouse, in vivo): reduced the intrapulmonary viral titers dose-dependently | inhibition at 100 µM (cathepsin D [6]): < 50% | CL (total clearance) [7]: 1.70 mL/min/kg | Inhibitory activity (cathepsin D [8]): no inhibitory activity | CC50 (in vitro): > 100 µM | IC50 (cathepsin L): > 100 µM | Inhibitory activity (cathepsin L; at 100 μM): no inhibitory activity | inhibition at 100 µM (cathepsin L; at 100 μM, read-out: Inhibitory activity): < 50% | EC50 (SARS-CoV-2 [9]; [13]): 0.31 µM | EC50 (SARS-CoV-2 [9]; [14]): 0.46 µM | EC50 (SARS-CoV-2 [9]; [15]): 0.33 µM | EC50 (SARS-CoV-2 [9]; [16]): 0.5 µM | EC50 (SARS-CoV-2 [9]; [17]): 0.43 µM | EC50 (SARS-CoV-2 [9]; [18]): 0.4 µM | EC50 (SARS-CoV-2 [9]; [19]): 0.41 µM | EC50 (SARS-CoV-2 [9]; [20]): 0.29 µM | EC50 (SARS-CoV-2 [9]; Severe acute respiratory syndrome coronavirus 2, CPE inhibition assay, VeroE6/TMPRSS2 cells, read-out: VeroE6/TMPRSS2 EC50 (antiviral activity)): 0.37 µM | clearance (in vivo [10]; iv, 0.1 mg/kg): 0.17 mL/min/kg | bioavailability (in vivo [10]; po): 64.7% | EC50 (MERS-CoV): 1.4 µM | Oral F (oral bioavailability) (Rat PK study): 97% | EC50 (HCoV-229E; MRC5, CPE, MRC-5 cells, mean, read-out: EC50 against HCoV-229E): 5.5 µM | clastogenicity (TK6 cells): no safety concerns | IC50 (caspase-2; caspase 2): > 100 µM | Inhibitory activity (caspase-2; caspase 2, at 100 μM): no inhibitory activity

CNC(=O)Cn1c(=O)nc(Nc2cc3sc(C)nc3cc2C)n(Cc2ccc(F)cc2)c1=O [Compound 19]
IC50 (SARS-CoV-2 3CL protease): 16 µM

CCC(CC)COC(=O)[C@H](C)N[P@](=O)(OC[C@H]1O[C@@](C#N)(c2ccc3c(N)ncnn23)[C@H](O)[C@@H]1O)Oc1ccccc1 [Remdesivir, reference compound]
EC50 (SARS-CoV): 1.3 µM | EC90 (HCoV-OC43; Betacoronavirus 1, OC43, MRC5, read-out: EC90 against HCoV-OC43): 0.024 µM | CC50 (VeroE6/TMPRSS2 cells): > 100 µM | EC50 (SARS-CoV-2 [9]; [13]): 0.97 µM | EC50 (SARS-CoV-2 [9]; [14]): 0.99 µM | EC50 (SARS-CoV-2 [9]; [15]): 0.87 µM | EC50 (SARS-CoV-2 [9]; [16]): 2.1 µM | EC50 (SARS-CoV-2 [9]; [17]): 1 µM | EC50 (SARS-CoV-2 [9]; [18]): 1.2 µM | EC50 (SARS-CoV-2 [9]; [19]): 1.6 µM | EC50 (SARS-CoV-2 [9]; [20]): 1.1 µM | EC50 (SARS-CoV-2 [9]; Severe acute respiratory syndrome coronavirus 2, VeroE6/TMPRSS2, read-out: EC50 on cytopathic effects): 1.9 µM | EC50 (MERS-CoV): 1.5 µM | EC50 (HCoV-229E; MRC5, read-out: EC50 against HCoV-229E): 0.041 µM

CNC(=O)Cn1c(=O)[nH]/c(=N\c2cc3sc(C)nc3cc2C)n(Cc2ccccc2)c1=O [Compound 16]
IC50 (SARS-CoV-2 3CL protease): 58 µM

CNC(=O)Cn1c(=O)[nH]/c(=N\c2ccc(OC)cc2)n(Cc2cc(F)c(F)c(F)c2)c1=O [Compound 14]
IC50 (SARS-CoV-2 3CL protease): 2.8 µM

CNC(=O)Cn1c(=O)[nH]/c(=N\c2cc3cn(C)nc3cc2Cl)n(Cc2cc(F)c(F)c(F)c2)c1=O [Compound 2, (4E)-2-{4-[(6-Chloro-2-methyl-2H-indazol-5-yl)imino]-2,6-dioxo-3-(3,4,5-trifluorobenzyl)-1,3,5-triazinan-1-yl)-N-methylacetamide]
RLM, percentage remaining after 30 min [11]: 94.3% | IC50 (SARS-CoV-2 3CL protease): 0.096 µM | improvement in enzymatic inhibitory activity (SARS-CoV-2 3CL protease; relative to hit compound 1): 90 fold | CL (total clearance) [7]: 4.9 mL/min/kg | Oral F (oral bioavailability) [7]: 29.6% | EC50 (SARS-CoV-2 [9]; Severe acute respiratory syndrome coronavirus 2, VeroE6/TMPRSS2, molecular formula strings csv, read-out: VeroE6/TMPRSS2 EC50): 12.5 µM | HLM, percentage remaining after 30 min [12]: 94.8%

CNC(=O)Cn1c(=O)[nH]/c(=N\c2ccc(OC)cc2C)n(Cc2cc(F)c(F)c(F)c2)c1=O [Compound 13]
IC50 (SARS-CoV-2 3CL protease): 1.9 µM

CNC(=O)Cn1c(=O)nc(Nc2cc3sc(C)nc3cc2C)n(Cc2cccc(F)c2)c1=O [Compound 18]
IC50 (SARS-CoV-2 3CL protease): 29 µM

CNC(=O)Cn1c(=O)[nH]/c(=N\c2ccc(OC(F)F)cc2C)n(Cc2cc(F)c(F)c(F)c2)c1=O [Compound 1, (4E)-2-(4-{[4-(Difluoromethoxy)-2-methylphenyl]imino}-2,6-dioxo-3-(3,4,5-trifluorobenzyl)-1,3,5-triazinan-1-yl)-N-methylacetamide]
IC50 (SARS-CoV-2 3CL protease): 8.6 µM | CL (total clearance) [7]: 7.3 mL/min/kg | Oral F (oral bioavailability) [7]: 111%
